Data: patent US10448639B2, “Fungicidal pyrazoles” (FMC CORPORATION, priority 2009, dated 2019)
Where two headings read alike, the source gives them in different places.

Experiments:
[1] = test system: Puccinia recondita f. sp. tritici; assay: Test I: wheat leaf rust, preventive spray on wheat seedlings, visual disease rating; conditions: for Test I rating (% disease control) / Test I disease control rating: wheat leaf rust, 100 = 100% disease control; for pest or weed control at 200 µg/mL: 192 h; for Test I disease control rating: sprayed the day before inoculation, 0 = no disease control relative to controls
Botrytis cinerea = assay: Test B: tomato Botrytis, preventive spray on tomato seedlings, visual disease rating; conditions: for Test B rating (% disease control) / Test B disease control rating: tomato Botrytis, 100 = 100% disease control; for pest or weed control at 200 µg/mL: Botrytis cinerea, in Solanum lycopersicum, 120 h; for Test B disease control rating: 0 = no disease control relative to controls
Text: General protocol for preparing test suspensions for Tests A-J: the test compounds were first dissolved in acetone in an amount equal to 3% of the final volume and then suspended at the desired concentration (in ppm) in acetone and purified water (50/50 mix by volume) containing 250 ppm of the surfactant Trem® 014 (polyhydric alcohol esters). The resulting test suspensions were then used in Tests A-J. Spraying a 200 ppm test suspension to the point of run-off on the test plants was the equivalent of a rate of 500 g/ha. Unless otherwise indicated, the rating values indicate a 200 ppm test suspension was used. (An asterisk “*” next to the rating value indicates a 40 ppm test suspension was used.)
The test suspension was sprayed to the point of run-off on tomato seedlings. The following day the seedlings were inoculated with a spore suspension of Botrytis cinerea (the causal agent of tomato Botrytis) and incubated in saturated atmosphere at 20° C. for 48 h, and then moved to a growth chamber at 24° C. for 3 additional days, after which time visual disease ratings were made.

Septoria tritici = assay: Test G: wheat leaf blotch, preventive spray on wheat seedlings, visual disease rating; conditions: for Test G rating (% disease control) / Test G disease control rating: wheat leaf blotch, 100 = 100% disease control; for pest or weed control at 200 µg/mL: Zymoseptoria tritici, in Triticum aestivum, 504 h; for Test G disease control rating: sprayed the day before inoculation, 0 = no disease control relative to controls
Alternaria solani = assay: Test C: tomato early blight, preventive spray on tomato seedlings, visual disease rating; conditions: for Test C rating (% disease control) / Test C disease control rating: tomato early blight, 100 = 100% disease control; for pest or weed control at 200 µg/mL: Alternaria solani, in Solanum lycopersicum, 168 h; for Test C disease control rating: 0 = no disease control relative to controls
[2] = test system: Erysiphe graminis f sp. tritici; assay: Test J: wheat powdery mildew, preventive spray on wheat seedlings, visual disease rating; conditions: for Test J rating (% disease control) / Test J disease control rating: wheat powdery mildew, 100 = 100% disease control; for pest or weed control at 200 µg/mL: Blumeria graminis, in Triticum aestivum, 192 h; for Test J disease control rating: sprayed the day before inoculation, 0 = no disease control relative to controls
Septoria nodorum = assay: Test F: Septoria glume blotch, preventive spray on wheat seedlings, visual disease rating; conditions: for Test F rating (% disease control) / Test F disease control rating: 100 = 100% disease control; for pest or weed control at 200 µg/mL: Parastagonospora nodorum, in Triticum aestivum, 192 h; for Test F disease control rating: 0 = no disease control relative to controls
[3] = test system: Puccinia recondita f. sp. tritici; assay: Test H: wheat leaf rust, curative spray on inoculated wheat seedlings, visual disease rating; conditions: for Test H rating (% disease control) / Test H disease control rating: wheat leaf rust, 100 = 100% disease control; for pest or weed control at 200 µg/mL: 144 h; for Test H disease control rating: sprayed after inoculation, 0 = no disease control relative to controls
[4] = preventive spray, 0 = no control
[5] = Septoria glume blotch on wheat, preventive spray, 0 = no control
[6] = read-out: Test I rating (% disease control)
[7] = read-out: Test B rating (% disease control)
[8] = read-out: Test G rating (% disease control)
[9] = read-out: Test C rating (% disease control)
[10] = read-out: Test J rating (% disease control)
[11] = read-out: Test F rating (% disease control)
[12] = read-out: Test H rating (% disease control)
[13] = preventive, 0 = no control relative to controls
[14] = 0 = no control relative to controls
[15] = Septoria glume blotch, 0 = no control relative to controls
[16] = curative, 0 = no control relative to controls
[17] = read-out: Test I disease control rating
[18] = read-out: Test B disease control rating
[19] = read-out: Test G disease control rating
[20] = read-out: Test C disease control rating
[21] = read-out: Test J disease control rating
[22] = read-out: Test F disease control rating
[23] = read-out: Test H disease control rating

## COc1cc(F)c(-c2c(C)nn(C)c2Nc2ccc(OC)nc2)c(F)c1 [compound 95]
[1]; [4]
  Test I rating (% disease control): 0%
Botrytis cinerea; [4]
  Test B rating (% disease control): 99%
Septoria tritici; [4]
  Test G rating (% disease control): 97%
Alternaria solani; [4]
  Test C rating (% disease control): 16%
[2]; [4]
  Test J rating (% disease control): 0%
Septoria nodorum; [5]
  Test F rating (% disease control): 0%
[3]; curative spray, 0 = no control
  Test H rating (% disease control): 0%

## COc1cc(F)c(-c2c(C)nn(C)c2Nc2ccc(Cl)c(F)c2)c(F)c1 [compound 49]
[1]; [4]
  Test I rating (% disease control): 89%
Botrytis cinerea; [4]
  Test B rating (% disease control): 100%
Septoria tritici; [4]
  Test G rating (% disease control): 99%
Alternaria solani; [4]
  Test C rating (% disease control): 17%
[2]; [4]
  Test J rating (% disease control): 79%
Septoria nodorum; [5]
  Test F rating (% disease control): 35%
[3]; curative spray, 0 = no control
  Test H rating (% disease control): 0%

## Cc1nn(C)c(Nc2c(F)cc(F)cc2F)c1-c1ccc(F)cc1F [Compound 41, 4-(2,4-difluorophenyl)-1,3-dimethyl-N-(2,4,6-trifluorophenyl)-1H-pyrazol-5-amine]
[1]; [6]
  pest or weed control at 200 µg/mL: 100%
Botrytis cinerea; [7]
  pest or weed control at 200 µg/mL: 100%
Septoria tritici; [8]
  pest or weed control at 200 µg/mL: 94%
Alternaria solani; [9]
  pest or weed control at 200 µg/mL: 99%
[2]; [10]
  pest or weed control at 200 µg/mL: 99%
Septoria nodorum; [11]
  pest or weed control at 200 µg/mL: 90%
[3]; [12]
  pest or weed control at 200 µg/mL: 0%

## Cc1nn(C)c(Nc2ccc(F)cc2F)c1-c1cccc(F)c1F [compound 202]
[1]; [13]
  Test I rating (% disease control): 28%
Botrytis cinerea; [14]
  Test B rating (% disease control): 99%
Septoria tritici; [14]
  Test G rating (% disease control): 99%
Alternaria solani; [14]
  Test C rating (% disease control): 0%
[2]; [14]
  Test J rating (% disease control): 99%
Septoria nodorum; [15]
  Test F rating (% disease control): 0%
[3]; [16]
  Test H rating (% disease control): 0%

## COc1cc(F)c(Nc2c(-c3ccccc3C(F)(F)F)c(C)nn2C)c(F)c1 [compound 240]
[1]; [13]
  Test I rating (% disease control): 99%
Botrytis cinerea; [14]
  Test B rating (% disease control): 100%
Septoria tritici; [14]
  Test G rating (% disease control): 99%
Alternaria solani; [14]
  Test C rating (% disease control): 99%
[2]; [14]
  Test J rating (% disease control): 100%
Septoria nodorum; [15]
  Test F rating (% disease control): 0%
[3]; [16]
  Test H rating (% disease control): 0%

## Cc1nn(C)c(Oc2ccc(C#N)cc2Cl)c1-c1c(F)cccc1F [Compound 358, 3-chloro-4-[[4-(2,6-difluorophenyl)-1,3-dimethyl-1H-pyrazol-5-yl]oxy]benzonitrile]
[1]; [17]
  pest or weed control at 200 µg/mL: 97%
Botrytis cinerea; [18]
  pest or weed control at 200 µg/mL: 99%
Septoria tritici; [19]
  pest or weed control at 200 µg/mL: 100%
Alternaria solani; [20]
  pest or weed control at 200 µg/mL: 0%
[2]; [21]
  pest or weed control at 200 µg/mL: 97%
Septoria nodorum; [22]
  pest or weed control at 200 µg/mL: 0%
[3]; [23]
  pest or weed control at 200 µg/mL: 0%

## Cc1nn(C)c(Nc2ncc(Cl)cc2Cl)c1-c1ccc(F)cc1F [compound 328]
[1]
  Test I disease control rating: 98%
Botrytis cinerea
  Test B disease control rating: 100%
Septoria tritici
  Test G disease control rating: 100%
Alternaria solani
  Test C disease control rating: 86%
[2]
  Test J disease control rating: 100%
Septoria nodorum; Septoria glume blotch on wheat
  Test F disease control rating: 0%
[3]
  Test H disease control rating: 0%

## COc1cc(F)c(-c2c(C)nn(C)c2Nc2ccc(OC)cc2OC)c(F)c1 [compound 51]
[1]; [4]
  Test I rating (% disease control): 89%
Botrytis cinerea; [4]
  Test B rating (% disease control): 100%
Septoria tritici; [4]
  Test G rating (% disease control): 100%
Alternaria solani; [4]
  Test C rating (% disease control): 0%
[2]; [4]
  Test J rating (% disease control): 78%
Septoria nodorum; [5]
  Test F rating (% disease control): 0%
[3]; curative spray, 0 = no control
  Test H rating (% disease control): 0%

## Cc1nn(C)c(Oc2c(F)cc(C#N)cc2F)c1-c1ccccc1C(F)(F)F [compound 306]
[1]
  Test I disease control rating: 28%
Botrytis cinerea
  Test B disease control rating: 7%
Septoria tritici
  Test G disease control rating: 93%
Alternaria solani
  Test C disease control rating: 0%
[2]
  Test J disease control rating: 64%
Septoria nodorum; Septoria glume blotch on wheat
  Test F disease control rating: 0%
[3]
  Test H disease control rating: 0%

## Cc1nn(C)c(Oc2c(F)cc([N+](=O)[O-])cc2F)c1-c1c(F)cc(F)cc1F [Compound 54, 5-(2,6-Difluoro-4-nitrophenoxy)-1,3-dimethyl-4-(2,4,6-trifluorophenyl)-1H-pyrazole]
[1]; [6]
  pest or weed control at 200 µg/mL: 95%
Botrytis cinerea; [7]
  pest or weed control at 200 µg/mL: 96%
Septoria tritici; [8]
  pest or weed control at 200 µg/mL: 41%
Alternaria solani; [9]
  pest or weed control at 200 µg/mL: 0%
[2]; [10]
  pest or weed control at 200 µg/mL: 95%
Septoria nodorum; [11]
  pest or weed control at 200 µg/mL: 0%
[3]; [12]
  pest or weed control at 200 µg/mL: 0%

## Cc1nn(C)c(Nc2ncc(Cl)cc2Cl)c1-c1ccc(F)cc1Cl [compound 73]
[1]; [4]
  Test I rating (% disease control): 100%
Botrytis cinerea; [4]
  Test B rating (% disease control): 100%
Septoria tritici; [4]
  Test G rating (% disease control): 100%
Alternaria solani; [4]
  Test C rating (% disease control): 99%
[2]; [4]
  Test J rating (% disease control): 99%
Septoria nodorum; [5]
  Test F rating (% disease control): 64%
[3]; curative spray, 0 = no control
  Test H rating (% disease control): 88%

## Cc1nn(C)c(Oc2ccc(C#N)cc2F)c1-c1c(F)cccc1F [Compound 361, 4-[[4-(2,6-difluorophenyl)-1,3-dimethyl-1H-pyrazol-5-yl]oxy]-3-fluorobenzonitrile]
[1]; [17]
  pest or weed control at 200 µg/mL: 100%
Botrytis cinerea; [18]
  pest or weed control at 200 µg/mL: 100%
Septoria tritici; [19]
  pest or weed control at 200 µg/mL: 100%
Alternaria solani; [20]
  pest or weed control at 200 µg/mL: 90%
[2]; [21]
  pest or weed control at 200 µg/mL: 100%
Septoria nodorum; [22]
  pest or weed control at 200 µg/mL: 0%
[3]; [23]
  pest or weed control at 200 µg/mL: 0%

## COc1cc(F)c(-c2c(C)nn(C)c2Nc2ccc(C)cc2)c(F)c1 [compound 50]
[1]; [4]
  Test I rating (% disease control): 98%
Botrytis cinerea; [4]
  Test B rating (% disease control): 99%
Septoria tritici; [4]
  Test G rating (% disease control): 100%
Alternaria solani; [4]
  Test C rating (% disease control): 57%
[2]; [4]
  Test J rating (% disease control): 99%
Septoria nodorum; [5]
  Test F rating (% disease control): 0%
[3]; curative spray, 0 = no control
  Test H rating (% disease control): 0%

## Cc1nn(C)c(Nc2ncc(Cl)cc2Cl)c1-c1ccccc1Cl [compound 320]
[1]
  Test I disease control rating: 99%
Botrytis cinerea
  Test B disease control rating: 99%
Septoria tritici
  Test G disease control rating: 100%
Alternaria solani
  Test C disease control rating: 67%
[2]
  Test J disease control rating: 98%
Septoria nodorum; Septoria glume blotch on wheat
  Test F disease control rating: 0%
[3]
  Test H disease control rating: 0%

## Cc1nn(C)c(Oc2c(F)cc(C#N)cc2F)c1-c1cccnc1Cl [compound 308]
[1]
  Test I disease control rating: 100%
Botrytis cinerea
  Test B disease control rating: 81%
Septoria tritici
  Test G disease control rating: 98%
Alternaria solani
  Test C disease control rating: 0%
[2]
  Test J disease control rating: 0%
Septoria nodorum; Septoria glume blotch on wheat
  Test F disease control rating: 0%
[3]
  Test H disease control rating: 9%

## Cc1nn(C)c(Nc2c(F)cc(Br)cc2F)c1-c1ccc(F)cc1F [Compound 364, N-(4-bromo-2,6-difluorophenyl)-4-(2,4-difluorophenyl)-1,3-dimethyl-1H-pyrazol-5-amine]
[1]; [17]
  pest or weed control at 200 µg/mL: 99%
Botrytis cinerea; [18]
  pest or weed control at 200 µg/mL: 99%
Septoria tritici; [19]
  pest or weed control at 200 µg/mL: 100%
Alternaria solani; [20]
  pest or weed control at 200 µg/mL: 97%
[2]; [21]
  pest or weed control at 200 µg/mL: 100%
Septoria nodorum; [22]
  pest or weed control at 200 µg/mL: 88%
[3]; [23]
  pest or weed control at 200 µg/mL: 0%

## COc1cc(F)c(-c2c(C)nn(C)c2Oc2ccc(C)c(C)c2)c(F)c1 [compound 210]
[1]; [13]
  Test I rating (% disease control): 94%
Botrytis cinerea; [14]
  Test B rating (% disease control): 0%
Septoria tritici; [14]
  Test G rating (% disease control): 100%
Alternaria solani; [14]
  Test C rating (% disease control): 0%
[2]; [14]
  Test J rating (% disease control): 99%
Septoria nodorum; [15]
  Test F rating (% disease control): 0%
[3]; [16]
  Test H rating (% disease control): 99%

## Cc1nn(C)c(Oc2ccc(C#N)cc2Cl)c1-c1c(F)cc(F)cc1F [compound 98]
[1]; [4]
  Test I rating (% disease control): 99%
Botrytis cinerea; [4]
  Test B rating (% disease control): 100%
Septoria tritici; [4]
  Test G rating (% disease control): 100%
Alternaria solani; [4]
  Test C rating (% disease control): 17%
[2]; [4]
  Test J rating (% disease control): 99%
Septoria nodorum; [5]
  Test F rating (% disease control): 69%
[3]; curative spray, 0 = no control
  Test H rating (% disease control): 26%

## COc1cc(F)c(-c2c(C)nn(C)c2C(O)c2ccc(F)cc2F)c(F)c1 (stereo not shown) [compound 208]
[1]; [13]
  Test I rating (% disease control): 99%
Botrytis cinerea; [14]
  Test B rating (% disease control): 100%
Septoria tritici; [14]
  Test G rating (% disease control): 100%
Alternaria solani; [14]
  Test C rating (% disease control): 100%
[2]; [14]
  Test J rating (% disease control): 99%
Septoria nodorum; [15]
  Test F rating (% disease control): 99%
[3]; [16]
  Test H rating (% disease control): 0%
